# Key:
# Test in all cases: relative viability (nuclei count vs DMSO), 5 days (fraction); higher = more cells survive
# Details in all cases: main component drawn
# Bleomycin + Tozasertib = compound: CC1=C(N=C(N=C1N)[C@H](CC(=O)N)NC[C@@H](C(=O)N)N)C(=O)N[C@@H]([C@H](C2=CN=CN2)OC3C(C(C(C(O3)CO)O)O)OC4C(C(C(C(O4)CO)O)OC(=O)N)O)C(=O)N[C@H](C)[C@H]([C@H](C)C(=O)N[C@@H]([C@@H](C)O)C(=O)NCCC5=NC(=CS5)C6=NC(=CS6)C(=O)NCCC[S+](C)C)O [Bleomycin] + Cc1cc(Nc2cc(N3CCN(C)CC3)nc(Sc3ccc(NC(=O)C4CC4)cc3)n2)n[nH]1 [Tozasertib] (partner 0.1 µM)
# Summary of the method: (§1)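 A single step with final 0.05% Triton X-100, 1% formaldehyde and 1 ug/ml Hoechst fixed the cells and stained nuclei 5 days after treatment. Lung cancer cell lines in 1536-well plates had been treated by pin tool the day after seeding with one drug alone or a fixed anchor-drug dose plus five library-drug doses (not always all listed) in √10 steps, and nuclei were counted on 4× images. Relative viability is the ratio of nuclei in treated wells to nuclei in vehicle wells, taken as the median of duplicate plates.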
# Bleomycin + Lapatinib = compound: CC1=C(N=C(N=C1N)[C@H](CC(=O)N)NC[C@@H](C(=O)N)N)C(=O)N[C@@H]([C@H](C2=CN=CN2)OC3C(C(C(C(O3)CO)O)O)OC4C(C(C(C(O4)CO)O)OC(=O)N)O)C(=O)N[C@H](C)[C@H]([C@H](C)C(=O)N[C@@H]([C@@H](C)O)C(=O)NCCC5=NC(=CS5)C6=NC(=CS6)C(=O)NCCC[S+](C)C)O [Bleomycin] + CS(=O)(=O)CCNCc1ccc(-c2ccc3ncnc(Nc4ccc(OCc5cccc(F)c5)c(Cl)c4)c3c2)o1 [Lapatinib] (partner 2 µM)
# Summary of the method: as §1
# Bleomycin + Olaparib = compound: CC1=C(N=C(N=C1N)[C@H](CC(=O)N)NC[C@@H](C(=O)N)N)C(=O)N[C@@H]([C@H](C2=CN=CN2)OC3C(C(C(C(O3)CO)O)O)OC4C(C(C(C(O4)CO)O)OC(=O)N)O)C(=O)N[C@H](C)[C@H]([C@H](C)C(=O)N[C@@H]([C@@H](C)O)C(=O)NCCC5=NC(=CS5)C6=NC(=CS6)C(=O)NCCC[S+](C)C)O [Bleomycin] + O=C(c1cc(Cc2n[nH]c(=O)c3ccccc23)ccc1F)N1CCN(C(=O)C2CC2)CC1 [Olaparib] (partner 8 µM)
# Summary of the method: as §1
# Bleomycin + Bortezomib = compound: CC1=C(N=C(N=C1N)[C@H](CC(=O)N)NC[C@@H](C(=O)N)N)C(=O)N[C@@H]([C@H](C2=CN=CN2)OC3C(C(C(C(O3)CO)O)O)OC4C(C(C(C(O4)CO)O)OC(=O)N)O)C(=O)N[C@H](C)[C@H]([C@H](C)C(=O)N[C@@H]([C@@H](C)O)C(=O)NCCC5=NC(=CS5)C6=NC(=CS6)C(=O)NCCC[S+](C)C)O [Bleomycin] + CC(C)C[C@H](NC(=O)[C@H](Cc1ccccc1)NC(=O)c1cnccn1)B(O)O [Bortezomib] (partner 0.002 µM)
# Summary of the method: as §1
Cell Line,relative viability (Bleomycin + Tozasertib; first compound 0.01 µM),relative viability (Bleomycin + Tozasertib; first compound 0.03162 µM),relative viability (Bleomycin + Tozasertib; first compound 0.1 µM),relative viability (Bleomycin + Tozasertib; first compound 0.3162 µM),relative viability (Bleomycin + Tozasertib; first compound 1 µM),relative viability (Bleomycin + Lapatinib; first compound 0.01 µM),relative viability (Bleomycin + Lapatinib; first compound 0.03162 µM),relative viability (Bleomycin + Lapatinib; first compound 0.1 µM),relative viability (Bleomycin + Lapatinib; first compound 0.3162 µM),relative viability (Bleomycin + Lapatinib; first compound 1 µM),relative viability (Bleomycin + Olaparib; first compound 0.01 µM),relative viability (Bleomycin + Olaparib; first compound 0.03162 µM),relative viability (Bleomycin + Olaparib; first compound 0.1 µM),relative viability (Bleomycin + Olaparib; first compound 0.3162 µM),relative viability (Bleomycin + Olaparib; first compound 1 µM),relative viability (Bleomycin + Bortezomib; first compound 0.01 µM),relative viability (Bleomycin + Bortezomib; first compound 0.03162 µM),relative viability (Bleomycin + Bortezomib; first compound 0.1 µM),relative viability (Bleomycin + Bortezomib; first compound 0.3162 µM),relative viability (Bleomycin + Bortezomib; first compound 1 µM)
SK-LU-1,0.295,0.35,0.363,0.235,0.215,0.745,0.858,0.709,0.35,0.347,0.38,0.436,0.397,0.307,0.29,0.939,1.04,0.915,0.293,0.274
NCI-H1650,0.307,0.234,0.213,0.189,0.178,0.535,0.321,0.235,0.147,0.16,0.285,0.183,0.167,0.156,0.158,0.2,0.216,0.194,0.167,0.172
BEN,0.487,0.519,0.452,0.431,0.475,0.72,0.709,0.913,0.571,0.542,0.97,1.03,0.899,0.809,0.733,0.909,0.868,0.967,0.578,0.609
EMC-BAC-2,0.2,0.278,0.246,0.22,0.178,0.817,0.754,0.719,0.399,0.305,0.35,0.428,0.404,0.324,0.221,0.927,0.92,0.868,0.319,0.279
LU99A,0.27,0.25,0.216,0.193,0.147,0.58,0.742,0.271,0.138,0.108,0.209,0.24,0.202,0.141,0.118,0.763,0.83,0.602,0.167,0.128
ABC-1,0.199,0.209,0.197,0.178,0.198,1.01,1.03,1.23,1.01,0.961,0.851,1.04,0.849,0.818,0.232,0.325,0.311,0.275,0.195,0.242
NCI-H2405,0.703,0.758,0.682,0.475,0.398,0.836,1.01,0.889,0.357,0.262,0.668,0.757,0.669,0.395,0.277,0.875,0.932,0.91,0.525,0.371
NCI-H1993,0.505,0.501,0.551,0.575,0.539,0.732,0.736,0.754,0.656,0.609,0.763,0.728,0.645,0.353,0.43,1.2,1.06,0.95,0.539,0.548
PC-14,0.335,0.275,0.145,0.0771,0.05,0.302,0.244,0.222,0.096,0.0848,0.114,0.147,0.0932,0.0421,0.0404,0.541,0.253,0.155,0.0725,0.0825
HARA,0.0994,0.118,0.107,0.1,0.081,0.764,0.734,0.704,0.644,0.308,0.733,0.942,0.701,0.247,0.351,1,1.09,1.04,0.514,0.239
NCI-H2126,0.736,0.865,0.861,0.421,0.32,0.768,0.76,0.735,0.638,0.548,0.863,0.933,0.932,0.739,0.67,1.06,1.08,1.08,0.7,0.947
NCI-H1437,0.369,0.404,0.369,0.309,0.324,0.711,0.743,0.775,0.296,0.373,0.571,0.593,0.499,0.397,0.378,0.519,0.44,0.452,0.121,0.303
NCI-H661,0.366,0.359,0.36,0.374,0.35,0.501,0.374,0.349,0.204,0.219,0.654,0.59,0.513,0.322,0.363,0.838,0.603,0.484,0.228,0.251
COR-L23,0.169,0.156,0.128,0.102,0.104,0.707,0.776,0.294,0.14,0.115,0.253,0.188,0.133,0.0874,0.0995,0.669,0.774,0.355,0.136,0.102
COR-L 105,0.31,0.337,0.33,0.325,0.279,0.279,0.379,0.345,0.268,0.294,0.614,0.518,0.526,0.417,0.352,0.711,0.594,0.549,0.337,0.292
201T,0.874,0.943,0.894,0.642,0.548,1,0.958,0.961,0.916,0.78,0.759,0.763,0.715,0.507,0.411,1.12,1,1.01,0.921,0.827
HCC-44,0.273,0.312,0.302,0.19,0.137,0.648,0.429,0.228,0.193,0.145,0.84,0.739,0.657,0.415,0.401,0.544,0.333,0.225,0.153,0.145
NCI-H647,0.0723,0.103,0.0701,0.0484,0.0467,0.353,0.336,0.191,0.0899,0.0986,0.161,0.148,0.195,0.0429,0.0447,0.39,0.299,0.223,0.118,0.0632
H3255,0.543,0.489,0.622,0.427,0.278,0.244,0.235,0.259,0.214,0.173,0.491,0.519,0.495,0.373,0.344,0.664,0.925,0.666,0.283,0.244
NCI-H650,0.584,0.627,0.57,0.231,0.188,0.537,0.748,0.686,0.318,0.21,0.333,0.463,0.336,0.264,0.175,0.548,0.697,0.569,0.259,0.214
NCI-H2023,0.237,0.283,0.222,0.116,0.109,0.521,0.664,0.506,0.19,0.101,0.273,0.357,0.238,0.0886,0.09,0.61,0.772,0.548,0.205,0.11
NCI-H2347,0.451,0.44,0.52,0.221,0.413,0.836,0.974,0.966,0.612,0.493,0.581,0.573,0.466,0.45,0.413,0.915,1.05,0.889,0.7,0.476
NCI-H596,0.639,0.583,0.468,0.354,0.253,0.852,0.742,0.547,0.416,0.452,0.599,0.515,0.515,0.371,0.438,0.662,0.686,0.637,0.402,0.521
NCI-H520,0.412,0.422,0.486,0.33,0.358,0.715,0.79,0.833,0.54,0.43,0.339,0.322,0.325,0.251,0.268,0.596,0.33,0.708,0.142,0.293
EKVX,0.434,0.413,0.365,0.191,0.204,0.211,0.209,0.187,0.127,0.166,0.719,0.563,0.501,0.244,0.231,0.859,1.04,0.954,0.511,0.318
EPLC-272H,0.232,0.243,0.191,0.127,0.173,0.586,0.812,0.369,0.205,0.109,0.407,0.237,0.183,0.0606,0.111,0.863,0.883,0.718,0.174,0.158
NCI-H2228,0.216,0.248,0.218,0.12,0.137,0.999,1.12,0.852,0.355,0.505,0.443,0.574,0.457,0.211,0.159,1.14,1.02,0.721,0.558,0.293
LXF-289,0.179,0.193,0.181,0.0822,0.0688,0.807,0.884,0.635,0.206,0.179,0.887,0.831,0.864,0.168,0.127,0.861,0.944,0.775,0.27,0.135

# Reference: the supplement of paper PMC10307832
